The target of data set [1] is T1, Calcitonin gene-related peptide type 1 receptor (Homo sapiens, UniProt O60894+Q16602). As to the kind of experiment: Displacement of [125I]-CGRP from CGRP receptor in human SK-N-MC cells after 2 hrs by gamma scintillation counter analysis. The class given is cell-based. For orientation: Loss of bound radioactivity is the signal in a displacement assay; it reports binding, not function.

Data set [2] is described as follows: Fraction unbound in human plasma. The class given is ADME, cell-free.
Data set [3] is described as follows: Aqueous solubility of the compound in amorphous form. The class given is physicochemical.
Data set [4] can be described thus: Half life in human liver microsomes. The class given is ADME, Microsome. Background: Liver microsomes are a subcellular fraction often used to study metabolism.
Data set [5] in a line: Oral bioavailability in fasted Sprague-Dawley rat at 10 mg/kg administered as solution. The format is ADME, organism-based. The note with it: in vivo.
A further data set addresses T2, Cytochrome P450 2B6 (Homo sapiens, UniProt P20813).
T2 sequence (P20813 whole entry): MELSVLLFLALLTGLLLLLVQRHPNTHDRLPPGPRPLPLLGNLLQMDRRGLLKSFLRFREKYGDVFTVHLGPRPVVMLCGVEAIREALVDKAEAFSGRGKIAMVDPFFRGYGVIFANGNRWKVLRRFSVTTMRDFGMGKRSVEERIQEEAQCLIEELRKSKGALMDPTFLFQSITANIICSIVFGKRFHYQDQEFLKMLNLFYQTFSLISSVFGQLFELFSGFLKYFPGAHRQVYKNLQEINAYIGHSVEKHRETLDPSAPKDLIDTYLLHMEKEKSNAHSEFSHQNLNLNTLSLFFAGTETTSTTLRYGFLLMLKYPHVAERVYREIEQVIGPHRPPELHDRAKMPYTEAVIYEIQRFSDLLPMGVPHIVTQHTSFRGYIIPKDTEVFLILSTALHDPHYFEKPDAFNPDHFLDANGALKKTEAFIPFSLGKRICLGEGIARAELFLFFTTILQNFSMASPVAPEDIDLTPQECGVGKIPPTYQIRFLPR
As to the kind of experiment: Inhibition of human recombinant CYP2B6 after 45 mins by fluorescence assay. The class given is ADME.

Data set [6] in a line: Aqueous solubility of the compound in crystalline form. The class given is physicochemical.
Data set [7] in a line: Oral bioavailability in overnight fasted cynomolgus monkey at 10 mg/kg administered as suspension of crystalline free base. The note with it: in vivo. The format is ADME, organism-based, Macaca fascicularis.
The target in another data set is Cytochrome P450 2C9 (Homo sapiens, UniProt P11712). As to the kind of experiment: Inhibition of human recombinant CYP2C9 using 7-methoxy-4-trifluoromethylcoumarin as substrate after 45 mins by fluorescence assay. The class given is ADME.
The next data set is filed under the species Homo sapiens. As to the kind of experiment: Toxicity in human up to 600 mg. The class given is organism-based. The following applies: in vivo.
The test system of a further data set is HEK293. As to the kind of experiment: Inhibition of L type sodium channel expressed in HEK293 cells at 10 to 30 uM. The format is cell-based. The following applies: Homo sapiens.
Data set [8] can be described thus: Oral bioavailability in overnight fasted cynomolgus monkey at 10 mg/kg administered as solution. The format is ADME, organism-based, Macaca fascicularis. The following applies: in vivo.
The nature of data set [9]: Plasma concentration in Harlan marmoset at 7 mg/kg, sc at 15 mins. Details: dose 7 mg/kg, route subcutaneous. The class given is ADME, organism-based, Callithrix jacchus.
The next data set concerns the target T3, Cytochrome P450 1A2 (Homo sapiens, UniProt P05177).
T3 sequence (P05177 whole entry): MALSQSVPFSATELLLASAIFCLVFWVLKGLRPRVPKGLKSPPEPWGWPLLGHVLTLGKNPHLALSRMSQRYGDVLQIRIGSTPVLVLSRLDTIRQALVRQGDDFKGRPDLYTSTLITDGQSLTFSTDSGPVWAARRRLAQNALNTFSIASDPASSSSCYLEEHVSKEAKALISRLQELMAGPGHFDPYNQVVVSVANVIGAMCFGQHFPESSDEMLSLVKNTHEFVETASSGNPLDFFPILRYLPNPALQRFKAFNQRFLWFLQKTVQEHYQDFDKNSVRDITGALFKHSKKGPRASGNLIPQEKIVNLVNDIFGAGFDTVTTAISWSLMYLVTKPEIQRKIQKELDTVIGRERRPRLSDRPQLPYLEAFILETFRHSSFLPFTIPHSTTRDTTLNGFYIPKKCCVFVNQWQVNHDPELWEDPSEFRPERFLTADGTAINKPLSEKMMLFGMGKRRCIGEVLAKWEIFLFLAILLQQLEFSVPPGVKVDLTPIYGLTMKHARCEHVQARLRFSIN
As to the kind of experiment: Inhibition of human recombinant CYP1A2 using 3-cyano-7-ethoxycoumarine as substrate after 45 mins by fluorescence assay. The class given is ADME.

Data set [10] is described as follows: Permeability of the compound at 100 uM at pH 7.4 after 4 hrs by PAMPA. The following applies: read-out: permeability. The format is ADME.
In data set [11] the target is T1, Calcitonin gene-related peptide type 1 receptor. Kind of data set: Antagonist activity at CGRP receptor in human SK-N-MC cells assessed as inhibition of CGRP-stimulated cAMP production preincubated for 15 mins prior to CGRP challenge measured after 30 mins by HTRF assay. The class given is functional, cell-based. For orientation: Cyclic AMP is a second messenger, typically raised through Gs and lowered through Gi signalling.

Another data set concerns Salmonella typhimurium. As to the kind of experiment: Genotoxicity in Salmonella typhimurium by Ames test. The following applies: salmonella enterica subsp. enterica serovar typhimurium. The format is toxicity, organism-based.
A further data set has as its target Cytochrome P450 2E1 (Homo sapiens, UniProt P05181). As to the kind of experiment: Inhibition of human recombinant CYP2E1 after 45 mins by fluorescence assay. The class given is ADME.
Data set [12] addresses Voltage-gated L-type calcium channel (Homo sapiens, UniProt Q13936+Q13698+Q01668+O60840). Kind of data set: Inhibition of L type calcium channel expressed in HEK293 cells at 10 to 30 uM. The format is cell-based.
Data set [13] has as its system Callithrix jacchus. As to the kind of experiment: Antagonist activity at CGRP receptor in Harlan marmoset assessed as inhibition of alphaCGRP-induced facial blood flow at 7 mg/kg, sc administered 45 mins interval for 2 hrs post alphaCGRP challenge measured after 60 to 105 mins by laser droppler flowmetry relative to control. The class given is functional. The following applies: route subcutaneous.

The target in data set [14] is Voltage-gated inwardly rectifying potassium channel KCNH2 (Homo sapiens, UniProt Q12809). As to the kind of experiment: Inhibition of human ERG alpha subunit expressed in HEK293 cells at 10 to 30 uM. The format is cell-based.
A short description of data set [15]: Plasma concentration in Harlan marmoset at 7 mg/kg, sc after 60 to 105 mins. The following applies: in vivo. The class given is ADME, organism-based, Callithrix jacchus. Details: dose 7 mg/kg, route subcutaneous.
Data set [16] concerns Callithrix jacchus. As to the kind of experiment: Antagonist activity at CGRP receptor in Harlan marmoset assessed as inhibition of CGRP-induced facial blood flow at 7 mg/kg, sc administered 45 mins interval for 2 hrs post alphaCGRP challenge measured at 15 mins by laser droppler flowmetry relative to control. The format is functional. The note with it: route subcutaneous.

Data set [17] is described as follows: Permeability of the compound at 100 uM at pH 5.5 after 4 hrs by PAMPA. The class given is ADME. The following applies: read-out: permeability.
In the next data set the target is T4, Cytochrome P450 2A6 (Homo sapiens, UniProt P11509).
T4 sequence (P11509 whole entry): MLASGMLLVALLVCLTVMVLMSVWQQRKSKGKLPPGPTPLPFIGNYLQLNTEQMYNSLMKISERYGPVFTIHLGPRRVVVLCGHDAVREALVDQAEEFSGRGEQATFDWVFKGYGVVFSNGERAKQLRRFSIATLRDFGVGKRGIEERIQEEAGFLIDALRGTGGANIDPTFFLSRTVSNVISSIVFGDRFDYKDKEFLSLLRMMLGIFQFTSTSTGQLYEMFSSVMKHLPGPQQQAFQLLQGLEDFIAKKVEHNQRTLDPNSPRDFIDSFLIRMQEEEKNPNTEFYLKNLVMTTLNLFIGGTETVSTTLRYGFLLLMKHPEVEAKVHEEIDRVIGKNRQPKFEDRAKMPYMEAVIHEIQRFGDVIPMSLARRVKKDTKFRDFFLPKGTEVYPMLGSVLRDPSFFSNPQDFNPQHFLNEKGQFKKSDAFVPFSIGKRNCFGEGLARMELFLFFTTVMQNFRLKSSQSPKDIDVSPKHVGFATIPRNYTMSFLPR
Kind of data set: Inhibition of human recombinant CYP2A6 after 45 mins by fluorescence assay. The format is ADME.

The target of another data set is Cytochrome P450 2D6 (Homo sapiens, UniProt P10635). Kind of data set: Inhibition of human recombinant CYP2D6 using 3-[2-(N,N-diethyl-Nmethylamino) ethyl]-7-methoxy-4-methylcoumarin as substrate after 45 mins by fluorescence assay. The class given is ADME.
The target of another data set is Cytochrome P450 2C19 (Homo sapiens, UniProt P33261). Kind of data set: Inhibition of human recombinant CYP2C19 using 3-cyano-7-ethoxycoumarine as substrate after 45 mins by fluorescence assay. The format is ADME.

Usually pKi stands for the negative decadic logarithm of the Ki, by convention in mol/L. What is called fraction unbound is free concentration divided by total concentration. One may read the solubility as how much of the substance goes into solution per volume. In general, half-life refers to the time needed for the level to fall by half in the phase considered. The term bioavailability denotes the share of a dose that reaches the circulation, judged against a reference dose that is usually intravenous. The term pIC50 denotes the IC50 on a negative log10 scale, so that one unit is a factor of ten. Usually pEC50 stands for the negative decadic logarithm of the EC50, by convention in mol/L. As usually defined, the inhibition in vivo is the share of the control response that was lost under treatment.

The structures appear in SMILES notation. pEC50, pIC50, pKi: −log10 of the molar value. ≈ marks a conversion by molar mass, not a printed value. Calls of active or inactive are those of the source.

T1 sequence (Q16602 whole entry, one chain of several): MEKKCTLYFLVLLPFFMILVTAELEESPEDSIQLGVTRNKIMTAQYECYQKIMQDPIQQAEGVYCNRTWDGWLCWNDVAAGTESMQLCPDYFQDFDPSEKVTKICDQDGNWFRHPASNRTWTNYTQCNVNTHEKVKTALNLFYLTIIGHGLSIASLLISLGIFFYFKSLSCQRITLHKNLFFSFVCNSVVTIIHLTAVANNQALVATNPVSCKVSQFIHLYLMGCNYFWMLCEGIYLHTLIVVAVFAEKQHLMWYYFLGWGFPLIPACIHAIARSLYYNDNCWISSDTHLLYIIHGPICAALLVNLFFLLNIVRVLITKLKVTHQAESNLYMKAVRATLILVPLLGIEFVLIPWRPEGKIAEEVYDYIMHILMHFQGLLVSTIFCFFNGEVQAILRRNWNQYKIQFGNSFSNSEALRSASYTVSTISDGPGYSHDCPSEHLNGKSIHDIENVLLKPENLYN
Voltage-gated inwardly rectifying potassium channel KCNH2, sequence (Q12809 whole entry): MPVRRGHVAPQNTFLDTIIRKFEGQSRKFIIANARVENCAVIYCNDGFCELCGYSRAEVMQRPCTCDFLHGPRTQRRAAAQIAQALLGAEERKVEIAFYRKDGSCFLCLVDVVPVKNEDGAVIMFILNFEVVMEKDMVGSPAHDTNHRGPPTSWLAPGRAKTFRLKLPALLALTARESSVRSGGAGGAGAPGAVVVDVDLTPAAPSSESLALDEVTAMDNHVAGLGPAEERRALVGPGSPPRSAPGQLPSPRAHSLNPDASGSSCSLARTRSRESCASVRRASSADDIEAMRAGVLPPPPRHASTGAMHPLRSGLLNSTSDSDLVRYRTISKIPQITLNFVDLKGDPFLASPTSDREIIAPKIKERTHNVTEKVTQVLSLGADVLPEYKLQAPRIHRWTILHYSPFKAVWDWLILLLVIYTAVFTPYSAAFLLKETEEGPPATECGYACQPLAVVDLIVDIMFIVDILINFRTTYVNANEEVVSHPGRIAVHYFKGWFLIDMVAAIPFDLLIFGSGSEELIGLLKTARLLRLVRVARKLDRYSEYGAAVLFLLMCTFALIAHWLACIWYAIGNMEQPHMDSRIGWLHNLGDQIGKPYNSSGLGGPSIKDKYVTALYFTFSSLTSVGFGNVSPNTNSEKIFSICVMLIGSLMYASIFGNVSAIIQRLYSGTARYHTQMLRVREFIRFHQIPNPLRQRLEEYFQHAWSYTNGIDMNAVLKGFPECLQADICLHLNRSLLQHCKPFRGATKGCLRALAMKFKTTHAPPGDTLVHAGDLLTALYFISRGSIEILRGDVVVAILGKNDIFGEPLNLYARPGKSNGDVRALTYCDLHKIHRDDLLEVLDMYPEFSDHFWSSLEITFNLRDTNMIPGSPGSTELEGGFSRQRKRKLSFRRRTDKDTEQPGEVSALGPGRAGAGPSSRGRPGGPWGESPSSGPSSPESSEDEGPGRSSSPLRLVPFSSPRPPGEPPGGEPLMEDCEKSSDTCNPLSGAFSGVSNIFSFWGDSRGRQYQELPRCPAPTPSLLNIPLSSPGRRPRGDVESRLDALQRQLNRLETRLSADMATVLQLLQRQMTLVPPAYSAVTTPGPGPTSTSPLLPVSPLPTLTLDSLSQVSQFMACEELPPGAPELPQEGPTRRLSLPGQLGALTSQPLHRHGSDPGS
Cytochrome P450 2C9, sequence (P11712 whole entry): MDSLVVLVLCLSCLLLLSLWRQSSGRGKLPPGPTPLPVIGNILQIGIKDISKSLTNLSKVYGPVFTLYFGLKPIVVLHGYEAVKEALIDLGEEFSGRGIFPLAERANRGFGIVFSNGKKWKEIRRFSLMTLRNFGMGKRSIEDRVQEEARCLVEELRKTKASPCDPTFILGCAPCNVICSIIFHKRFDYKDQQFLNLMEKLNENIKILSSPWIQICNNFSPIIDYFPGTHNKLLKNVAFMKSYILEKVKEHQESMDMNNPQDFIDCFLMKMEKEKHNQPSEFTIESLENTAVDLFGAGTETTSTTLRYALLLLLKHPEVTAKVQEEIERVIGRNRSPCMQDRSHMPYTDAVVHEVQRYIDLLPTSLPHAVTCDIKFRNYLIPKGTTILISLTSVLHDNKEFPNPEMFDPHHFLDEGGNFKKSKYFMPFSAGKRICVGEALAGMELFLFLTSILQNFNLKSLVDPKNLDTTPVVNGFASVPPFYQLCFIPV
Cytochrome P450 2E1, sequence (P05181 whole entry): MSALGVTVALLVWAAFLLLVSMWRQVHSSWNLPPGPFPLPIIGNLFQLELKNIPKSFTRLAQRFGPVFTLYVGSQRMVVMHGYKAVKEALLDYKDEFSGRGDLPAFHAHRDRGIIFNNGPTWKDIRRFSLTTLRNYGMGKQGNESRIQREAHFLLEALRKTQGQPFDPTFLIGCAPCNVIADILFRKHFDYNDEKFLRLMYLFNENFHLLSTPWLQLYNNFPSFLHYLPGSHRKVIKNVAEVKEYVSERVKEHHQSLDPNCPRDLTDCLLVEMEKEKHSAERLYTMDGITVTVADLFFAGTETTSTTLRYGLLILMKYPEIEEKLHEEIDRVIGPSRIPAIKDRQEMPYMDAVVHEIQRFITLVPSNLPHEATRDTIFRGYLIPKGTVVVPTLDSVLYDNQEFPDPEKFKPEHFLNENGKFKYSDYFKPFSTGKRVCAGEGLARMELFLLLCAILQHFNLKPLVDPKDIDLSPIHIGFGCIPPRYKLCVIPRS
Cytochrome P450 2D6, sequence (P10635 whole entry): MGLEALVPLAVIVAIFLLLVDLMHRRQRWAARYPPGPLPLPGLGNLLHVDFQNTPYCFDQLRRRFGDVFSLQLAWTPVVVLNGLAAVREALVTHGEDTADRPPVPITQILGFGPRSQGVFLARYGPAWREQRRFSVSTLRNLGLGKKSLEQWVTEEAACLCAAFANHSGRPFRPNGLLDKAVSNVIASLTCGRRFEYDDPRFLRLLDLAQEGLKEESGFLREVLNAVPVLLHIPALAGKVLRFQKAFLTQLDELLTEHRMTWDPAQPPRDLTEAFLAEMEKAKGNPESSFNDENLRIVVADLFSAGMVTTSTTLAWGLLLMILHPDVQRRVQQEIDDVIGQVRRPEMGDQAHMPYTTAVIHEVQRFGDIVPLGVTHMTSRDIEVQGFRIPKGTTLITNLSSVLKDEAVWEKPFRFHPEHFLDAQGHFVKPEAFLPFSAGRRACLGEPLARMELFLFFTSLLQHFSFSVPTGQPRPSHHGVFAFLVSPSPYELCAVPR
Cytochrome P450 2C19, sequence (P33261 whole entry): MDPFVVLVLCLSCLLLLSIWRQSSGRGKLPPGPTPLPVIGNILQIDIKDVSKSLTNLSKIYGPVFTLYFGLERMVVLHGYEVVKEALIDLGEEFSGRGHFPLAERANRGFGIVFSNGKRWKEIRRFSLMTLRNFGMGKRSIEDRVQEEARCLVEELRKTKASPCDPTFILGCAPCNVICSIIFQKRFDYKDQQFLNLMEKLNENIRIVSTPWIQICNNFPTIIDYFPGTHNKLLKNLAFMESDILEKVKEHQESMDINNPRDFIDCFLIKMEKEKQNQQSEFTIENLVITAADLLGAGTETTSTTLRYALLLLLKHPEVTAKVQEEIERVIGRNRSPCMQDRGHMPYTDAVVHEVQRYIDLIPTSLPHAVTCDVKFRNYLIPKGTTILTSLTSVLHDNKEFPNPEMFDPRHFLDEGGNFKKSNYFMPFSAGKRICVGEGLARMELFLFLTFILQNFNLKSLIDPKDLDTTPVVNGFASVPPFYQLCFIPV

As to `[N-]=[N+]=N[C@@H]1c2cccnc2[C@H](OC(=O)N2CCC(n3c(=O)[nH]c4ncccc43)CC2)CC[C@H]1c1cccc(F)c1F`, in [1], the pKi was 10.18.

Turning to `O=C(O[C@@H]1CC[C@@H](c2cccc(F)c2F)[C@@H](O)c2cccnc21)N1CCC(n2c(=O)[nH]c3ncccc32)CC1`, the pKi in [1] is 8.37.

On to `O=C(O[C@@H]1CC[C@@H](c2cccc(F)c2F)[C@H](O)c2cccnc21)N1CCC(n2c(=O)[nH]c3ncccc32)CC1`, for which the unbound share (fraction unbound) in data set [2] came out at 0.041. Also, the pKi in data set [1] was 10.09. The molecule further returned a solubility in data set [3] of 66 µg/mL (≈ 123 µM). For the same molecule, the half-life in data set [4] came out at 1.17 h.

For `O=C(O[C@@H]1CC[C@H](c2cccc(F)c2F)[C@H](O)c2cccnc21)N1CCC(n2c(=O)[nH]c3ncccc32)CC1` (mixture of isomers), the pKi in data set [1] is 9.17.

`N[C@@H]1c2cccnc2[C@H](OC(=O)N2CCC(n3c(=O)[nH]c4ncccc43)CC2)CC[C@H]1c1cccc(F)c1F` [RIMEGEPANT]: the bioavailability stood at 45% in data set [5], 48% in data set [7] and 67% in [8]. The pIC50 at Cytochrome P450 2B6, on Cytochrome P450 2C9, on Cytochrome P450 1A2, on Cytochrome P450 2E1, on Cytochrome P450 2A6 and at Cytochrome P450 2D6 was ≤ 4.70 throughout. For the same molecule, the pIC50 at Cytochrome P450 2C19 was ≤ 4.70. In data set [2], this molecule showed a fraction unbound of 0.069. In addition, the concentration in solution in data set [6] (solubility) came to 50 µg/mL (≈ 93.5 µM). The pKi in data set [1] was 10.57. The Activity entry in the data set filed under Homo sapiens and in the data set with Salmonella typhimurium was “Non-toxic” each time. In the data set with HEK293, the inhibition entry was “inactive”. Moreover, the concentration at 0.25 h in data set [9] amounted to 400 nM. Further, the Papp at 4 h, 100 µM came out at 32 ×10⁻⁶ cm/s in data set [10] and 19 ×10⁻⁶ cm/s in [17]. Besides, in data set [11], the pEC50 is 9.85. This molecule also gave a half-life in data set [4] of 1.38 h. Also, the results for the “inhibition (INH)” value in [12] and in data set [14] were “Not Active” and < 30%, respectively. Further, the inhibition in vivo at 7 mg/kg with Callithrix jacchus [13] was 75%; with Callithrix jacchus [16], > 65%. In addition, the concentration in [15] was < 800 nM.

Values taken from ChEMBL document CHEMBL2176923, “Discovery of (5S,6S,9R)-5-amino-6-(2,3-difluorophenyl)-6,7,8,9-tetrahydro-5H-cyclohepta[b]pyridin-9-yl 4-(2-oxo-2,3-dihydro-1H-imidazo[4,5-b]pyridin-1-yl)piperidine-1-carboxylate (BMS-927711): an oral calcitonin gene-related peptide (CGRP) antagonist in clinical trials for treating migraine” (J Med Chem, 2012).
